Data: patent publication US20250066370A1, “BICYCLIC TRIAZINE DERIVATIVES FOR THE TREATMENT OF CANCER” (DEUTSCHES KREBSFORSCHUNGSZENTRUM, priority 2022, published 2025)

Legend:
[1] = system: MDA-MB-231, human breast cancer cells; assay: Proliferation assay MDA-MB-231 (crystal violet); assay type: cell-based; settings: 96 h, MDA-MB-231 parental cells, 4 days, median, read-out: Prolif-MDA MB-231, IC50 - [mol/l] (median)
Procedure: Human tumour cells were originally obtained from the American Type Culture Collection (ATCC), or from the Deutsche Sammlung von Mikroorganismen und Zellkulturen (DSMZ, German Collection of Microorganisms and Cell Cultures). Cultivated tumour cells (CAL-120, human breast adenocarcinoma cells, DSMZ ACC-459; MDA-MB-231, human breast cancer cells, ATCC HTB-26) were plated at a density of 4,000 cells/well in a 96-well multitier plate in 200 microL of their respective growth medium supplemented 10% fetal calf serum. After 24 hours, the cells of one plate (zero-point plate) were stained with crystal violet (see below), while the medium of the other plates was supplemented with the test substances in various concentrations (0 micromol/L, as well as in the range of 0.01-10 micromol/L; the final concentration of the solvent dimethyl sulfoxide was adjusted to 0.1%) using a Tecan HP D300 Digital Dispenser. The cells were incubated for 4 days in the presence of test substances. Cell proliferation was determined by staining the cells with crystal violet: the cells were fixed by adding 20 microL/measuring point of an 11% glutaric aldehyde solution for 15 minutes at room temperature. After three washing cycles of the fixed cells with water, the plates were dried at room temperature. The cells were stained by adding 100 microL/measuring point of a 0.1% crystal violet solution (pH 3.0). After three washing cycles of the stained cells with water, the plates were dried at room temperature. The dye was dissolved by adding 100 microL/measuring point of a 10% acetic acid solution. The extinction was determined by photometry at a wavelength of 595 nm. The change of cell number, in percent, was calculated by normalization of the measured values to the extinction values of the zero-point plate (=0%) and the extinction of the untreated (0 μM) cells (=100%). The IC50 values (inhibitory concentration at 50% of maximal effect) were determined by means of a 4 parameter fit.

CDK9/CyclinT1 = CDK9/CyclinT1 (Homo sapiens (Human), UniProt P50750); assay: CDK9/CycT1 high ATP kinase assay (TR-FRET); assay type: biochemical; settings: 2 mM ATP (high ATP); median; read-out: CDK9/CyclinT1, 2 mM ATP (high ATP), IC50 - [mol/l] (median)
Sequence of CDK9/CyclinT1 (P50750 whole entry): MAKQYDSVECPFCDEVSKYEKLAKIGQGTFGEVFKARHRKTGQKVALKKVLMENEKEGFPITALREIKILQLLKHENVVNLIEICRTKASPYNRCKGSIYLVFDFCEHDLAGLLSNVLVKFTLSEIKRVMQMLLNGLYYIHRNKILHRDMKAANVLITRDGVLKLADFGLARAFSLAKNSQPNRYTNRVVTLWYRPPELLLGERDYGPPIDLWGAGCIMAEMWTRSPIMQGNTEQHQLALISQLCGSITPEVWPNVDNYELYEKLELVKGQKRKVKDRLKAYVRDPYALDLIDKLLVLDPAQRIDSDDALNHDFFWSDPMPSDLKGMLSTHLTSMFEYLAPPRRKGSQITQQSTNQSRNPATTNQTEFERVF
Sequence of CDK9/CyclinT1 (O60563 whole entry partner): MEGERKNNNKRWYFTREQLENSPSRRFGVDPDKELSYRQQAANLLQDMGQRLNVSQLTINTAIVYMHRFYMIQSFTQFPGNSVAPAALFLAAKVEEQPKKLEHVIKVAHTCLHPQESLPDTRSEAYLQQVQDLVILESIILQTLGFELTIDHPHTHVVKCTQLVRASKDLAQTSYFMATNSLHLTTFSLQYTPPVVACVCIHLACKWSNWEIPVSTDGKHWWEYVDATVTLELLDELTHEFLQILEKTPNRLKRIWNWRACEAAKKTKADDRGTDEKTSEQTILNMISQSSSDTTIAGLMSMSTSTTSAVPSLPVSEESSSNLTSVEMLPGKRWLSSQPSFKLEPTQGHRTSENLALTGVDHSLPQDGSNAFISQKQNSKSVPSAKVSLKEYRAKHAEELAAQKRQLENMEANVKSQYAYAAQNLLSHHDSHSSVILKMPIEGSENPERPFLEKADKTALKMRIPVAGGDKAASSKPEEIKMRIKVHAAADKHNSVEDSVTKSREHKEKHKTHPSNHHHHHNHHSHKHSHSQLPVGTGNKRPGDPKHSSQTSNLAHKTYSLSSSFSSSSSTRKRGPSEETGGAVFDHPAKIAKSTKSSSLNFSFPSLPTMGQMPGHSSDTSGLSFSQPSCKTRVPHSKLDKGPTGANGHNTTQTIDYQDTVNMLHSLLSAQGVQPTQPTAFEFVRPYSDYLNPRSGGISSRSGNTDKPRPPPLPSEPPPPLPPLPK
Procedure: CDK9/CycT1-inhibitory activity of compounds of the present invention at a high ATP concentration after preincubation of enzyme and test compounds was quantified employing the CDK9/CycT1 TR-FRET assay as described in the following paragraphs.
Recombinant full-length His-tagged human CDK9 and CycT1, expressed in insect cells and purified by Ni-NTA affinity chromatography, were purchased from Life Technologies (Cat. No PV4131). As substrate for the kinase reaction biotinylated peptide biotin-Ttds-YISPLKSPYKISEG (C-terminus in amide form) was used which can be purchased e.g. form the company JERINI peptide technologies (Berlin, Germany).
For the assay 50 nanoL of a 100 fold concentrated solution of the test compound in DMSO was pipetted into either a black low volume 384 well microtiter plate or a black 1536 well microtiter plate (both Greiner Bio-One, Frickenhausen, Germany), 2 microL of a solution of CDK9/CycT1 in aqueous assay buffer [50 millimol/L Tris/HCl PH 8.0, 10 millimol/L MgCl2, 1.0 millimol/L dithiothreitol, 0.1 millimol/L sodium ortho-vanadate, 0.01% (v/v) Nonidet-P40 (Sigma)] were added and the mixture was incubated for 15 min at 22° C. to allow pre-binding of the test compounds to the enzyme before the start of the kinase reaction. Then the kinase reaction was started by the addition of 3 microL of a solution of adenosine-tri-phosphate (ATP, 3.3 millimol/L=>final conc. in the 5 microL assay volume is 2 millimol/L) and substrate (1.25 micromol/L=>final conc. in the 5 microL assay volume is 0.75 micromol/L) in assay buffer and the resulting mixture was incubated for a reaction time of 25 min at 22° C. The concentration of CDK9/CycT1 was adjusted depending of the activity of the enzyme lot and was chosen appropriate to have the assay in the linear range, typical concentrations were in the range of 0.5 microg/ml. The reaction was stopped by the addition of 3 microL of a solution of TR-FRET detection reagents (0.33 micromol/L streptavidine-XL665 [Cisbio Bioassays, Codolet, France] and 1.67 nanomol/L anti-RB (pSer807/pSer811)-antibody from BD Pharmingen [#558389] and 2 nanomol/L LANCE EU-W1024 labeled anti-mouse IgG antibody [Perkin-Elmer, product no. AD0077]) in an aqueous EDTA-solution (167 millimol/L EDTA, 0.2% (w/v) bovine serum albumin in 100 millimol/L HEPES pH 7.5).
The resulting mixture was incubated 1 h at 22° C. to allow the formation of complex between the phosphorylated biotinylated peptide and the detection reagents. Subsequently the amount of phosphorylated substrate was evaluated by measurement of the resonance energy transfer from the Eu-chelate to the streptavidine-XL. Therefore, the fluorescence emissions at 620 nm and 665 nm after excitation at 350 nm was measured in a TR-FRET reader, e.g. a Pherastar (BMG Labtechnologies, Offenburg, Germany) or a Viewlux (Perkin-Elmer). The ratio of the emissions at 665 nm and at […] was taken as the measure for the amount of phosphorylated substrate. The data were normalised (enzyme reaction without inhibitor=0% inhibition, all other assay components but no enzyme=100% inhibition).

Row | Structure (SMILES) | IC50 (CDK9/CyclinT1) [nM] | IC50 [1] [nM]
1 | FC(F)(F)c1ccc(-c2nnc(CNc3nc(N4CCOCC4)nn4c(C(F)(F)F)cnc34)[nH]2)cc1 [Example 11, 2-(morpholin-4-yl)-7-(trifluoromethyl)-N-({5-[4-(trifluoromethyl)phenyl]-4H-1,2,4-triazol-3-yl}methyl)imidazo[2,1-f][1,2,4]triazin-4-amine] | > 20000 | 434
2 | COc1ccc(-c2nnc(CNc3nc(N4CCOCC4)nc4c(C(F)(F)F)cnn34)[nH]2)cn1 [Example 15, N-{[5-(6-methoxypyridin-3-yl)-4H-1,2,4-triazol-3-yl]methyl}-2-(morpholin-4-yl)-8-(trifluoromethyl)pyrazolo[1,5-a][1,3,5]triazin-4-amine] | – | 259
3 | FC(F)(F)Oc1ccc(-c2nnc(CNc3nc(N4CCOCC4)nn4c(C(F)(F)F)cnc34)[nH]2)cn1 [Example 19, 2-(morpholin-4-yl)-N-({5-[6-(trifluoromethoxy)pyridin-3-yl]-4H-1,2,4-triazol-3-yl}methyl)-7-(trifluoromethyl)imidazo[2,1-f][1,2,4]triazin-4-amine] | 506 | 37.5
4 | Cc1ccc(-c2nnc(CNc3nc(N4CCOCC4)nn4c(C(F)(F)F)cnc34)[nH]2)cn1 [Example 23, N-{[5-(6-methylpyridin-3-yl)-4H-1,2,4-triazol-3-yl]methyl}-2-(morpholin-4-yl)-7-(trifluoromethyl)imidazo[2,1-f][1,2,4]triazin-4-amine] | 624 | 75.8
5 | FC(F)(F)c1ccc(-c2nnc(CNc3nc(N4CCOCC4)nn4c(C(F)(F)F)cnc34)[nH]2)cn1 [Example 20, 2-(morpholin-4-yl)-7-(trifluoromethyl)-N-({5-[6-(trifluoromethyl)pyridin-3-yl]-4H-1,2,4-triazol-3-yl}methyl)imidazo[2,1-f][1,2,4]triazin-4-amine] | 847 | 52.9
6 | FC(F)(F)c1ccc(-c2cnc(CNc3nc(N4CCOCC4)nn4c(C(F)(F)F)cnc34)[nH]2)cn1 [Example 12, 2-(morpholin-4-yl)-7-(trifluoromethyl)-N-({5-[6-(trifluoromethyl)pyridin-3-yl]-1H-imidazol-2-yl}methyl)imidazo[2,1-f][1,2,4]triazin-4-amine] | > 20000 | 22.5
7 | FC(F)(F)Oc1ccc(-c2cnc(CNc3nc(N4CCOCC4)nn4c(C(F)(F)F)cnc34)[nH]2)cc1 [Example 8, 2-(morpholin-4-yl)-N-({5-[4-(trifluoromethoxy)phenyl]-1H-imidazol-2-yl}methyl)-7-(trifluoromethyl)imidazo[2,1-f][1,2,4]triazin-4-amine] | > 20000 | 114
8 | COc1ccc(-c2nnc(CNc3nc(N4CCOCC4)nn4c(C(F)(F)F)cnc34)[nH]2)cn1 [Example 18, N-{[5-(6-methoxypyridin-3-yl)-4H-1,2,4-triazol-3-yl]methyl}-2-(morpholin-4-yl)-7-(trifluoromethyl)imidazo[2,1-f][1,2,4]triazin-4-amine] | – | 72.1
9 | FC(F)(F)c1ccc(-c2cnc(CNc3nc(N4CCOCC4)nc4c(C(F)(F)F)cnn34)[nH]2)cn1 [Example 24, 2-(morpholin-4-yl)-8-(trifluoromethyl)-N-({5-[6-(trifluoromethyl)pyridin-3-yl]-1H-imidazol-2-yl}methyl)pyrazolo[1,5-a][1,3,5]triazin-4-amine] | – | 21.7

Continued, in another order:

Row | IC50 (CDK9/CyclinT1) [nM] | Structure (SMILES) | IC50 [1] [nM]
10 | 17800 | FC(F)(F)Oc1ccc(-c2nnc(CNc3nc(N4CCOCC4)nc4c(C(F)(F)F)cnn34)[nH]2)cc1 [Example 5, 2-(morpholin-4-yl)-N-({5-[4-(trifluoromethoxy)phenyl]-4H-1,2,4-triazol-3-yl}methyl)-8-(trifluoromethyl)pyrazolo[1,5-a][1,3,5]triazin-4-amine] | 319
11 | 3050 | COc1ccc(-c2cnc(CNc3nc(N4CCOCC4)nc4c(C(F)(F)F)cnn34)[nH]2)cn1 [Example 21, N-{[5-(6-methoxypyridin-3-yl)-1H-imidazol-2-yl]methyl}-2-(morpholin-4-yl)-8-(trifluoromethyl)pyrazolo[1,5-a][1,3,5]triazin-4-amine] | 98.3
12 | 15400 | FC(F)(F)c1ccc(-c2cnc(CNc3nc(N4CCOCC4)nc4c(Br)cnn34)[nH]2)cc1 [Example 3, 8-bromo-2-(morpholin-4-yl)-N-({5-[4-(trifluoromethyl)phenyl]-1H-imidazol-2-yl}methyl)pyrazolo[1,5-a][1,3,5]triazin-4-amine] | –
13 | > 20000 | FC(F)(F)Oc1ccc(-c2cnc(CNc3nc(N4CCOCC4)nc4c(C(F)(F)F)cnn34)[nH]2)cc1 [Example 10, 2-(morpholin-4-yl)-N-({5-[4-(trifluoromethoxy)phenyl]-1H-imidazol-2-yl}methyl)-8-(trifluoromethyl)pyrazolo[1,5-a][1,3,5]triazin-4-amine] | 123
14 | 4580 | FC(F)(F)c1ccc(-c2nnc(CNc3nc(N4CCOCC4)nc4c(Br)cnn34)[nH]2)cc1 [Example 1, 8-bromo-2-(morpholin-4-yl)-N-({5-[4-(trifluoromethyl)phenyl]-4H-1,2,4-triazol-3-yl}methyl)pyrazolo[1,5-a][1,3,5]triazin-4-amine] | –
15 | > 20000 | FC(F)(F)Oc1ccc(-c2nnc(CNc3nc(N4CCOCC4)nn4c(C(F)(F)F)cnc34)[nH]2)cc1 [Example 14, 2-(morpholin-4-yl)-N-({5-[4-(trifluoromethoxy)phenyl]-4H-1,2,4-triazol-3-yl}methyl)-7-(trifluoromethyl)imidazo[2,1-f][1,2,4]triazin-4-amine] | 319
16 | > 20000 | FC(F)(F)c1ccc(-c2nnc(CNc3nc(N4CCOCC4)nc4c(C(F)(F)F)cnn34)[nH]2)cc1 [Example 6, 2-(morpholin-4-yl)-8-(trifluoromethyl)-N-({5-[4-(trifluoromethyl)phenyl]-4H-1,2,4-triazol-3-yl}methyl)pyrazolo[1,5-a][1,3,5]triazin-4-amine] | 777
17 | > 20000 | FC(F)(F)Oc1ccc(-c2cnc(CNc3nc(N4CCOCC4)nc4c(Br)cnn34)[nH]2)cc1 [Example 4, 8-bromo-2-(morpholin-4-yl)-N-({5-[4-(trifluoromethoxy)phenyl]-1H-imidazol-2-yl}methyl)pyrazolo[1,5-a][1,3,5]triazin-4-amine] | 123
18 | 6350 | FC(F)(F)Oc1ccc(-c2nnc(CNc3nc(N4CCOCC4)nc4c(Br)cnn34)[nH]2)cc1 [Example 2, 8-bromo-2-(morpholin-4-yl)-N-({5-[4-(trifluoromethoxy)phenyl]-4H-1,2,4-triazol-3-yl}methyl)pyrazolo[1,5-a][1,3,5]triazin-4-amine] | –
